Results on six molecules are retold here after ChEMBL document CHEMBL3588751, “A new antibacterial octaketide and cytotoxic phenylethanoid glycosides from Pogostemon cablin (Blanco) Benth” (Bioorg Med Chem Lett, 2015).

One experiment deals with A549. As to the kind of experiment: Cytotoxicity against human A549 cells assessed as inhibition of cell growth incubated for 48 hrs by SRB assay. In kind it is functional, cell-based. The settings on record: A549, 48 h. A general note: In SRB staining, fixed cells bind dye roughly in proportion to their protein.
Another experiment has as its system Saccharomyces cerevisiae. Briefly: Antimicrobial activity against Saccharomyces cerevisiae ATCC 9763 incubated for 48 hrs by broth dilution method. In kind it is functional, organism-based. The settings on record: ATCC 9763, 48 h.
A further experiment deals with HCT-15. Briefly: Cytotoxicity against human HCT15 cells assessed as inhibition of cell growth incubated for 48 hrs by SRB assay. In kind it is functional, cell-based. The settings on record: HCT-15, 48 h.
A further experiment deals with SK-OV-3. As to the kind of experiment: Cytotoxicity against human SKOV3 cells assessed as inhibition of cell growth incubated for 48 hrs by SRB assay. As to conditions: SK-OV-3, 48 h. In kind it is functional, cell-based.
A further experiment relates to SK-MEL-2. As to the kind of experiment: Cytotoxicity against human SK-MEL-2 cells assessed as inhibition of cell growth incubated for 48 hrs by SRB assay. The settings on record: SK-MEL-2, 48 h. In kind it is functional, cell-based.
Another experiment has as its system Bacillus subtilis. Briefly: Antimicrobial activity against Bacillus subtilis ATCC 6633 incubated for 48 hrs by broth dilution method. In kind it is functional, organism-based. As to conditions: ATCC 6633, 48 h. Background: In broth dilution the organism is exposed to a series of concentrations in liquid medium.
In a further experiment the test system is Candida albicans. Briefly: Antimicrobial activity against Candida albicans ATCC 10231 incubated for 48 hrs by broth dilution method. The settings on record: ATCC 10231, 48 h. In kind it is functional, organism-based.
Another experiment relates to Staphylococcus aureus. Briefly: Antimicrobial activity against Staphylococcus aureus BAA-2313 incubated for 48 hrs by broth dilution method. In kind it is functional, organism-based. As to conditions: BAA-2313, 48 h.

Values after ≈ are worked out from the molar mass of the structure shown. Some results are limits rather than exact numbers.

By IC50 is commonly meant the concentration at which inhibition is half-maximal. Usually MIC stands for the smallest concentration in the dilution series that meets the test's criterion for growth inhibition. High values mean weaker potency, low ones greater potency.

Regarding `C[C@@H]1O[C@@H](O[C@@H]2[C@@H](O)[C@H](OCCc3ccc(O)c(O)c3)O[C@H](CO)[C@@H]2OC(=O)/C=C/c2ccc(O)c(O)c2)[C@H](O)[C@H](O)[C@H]1O`, the IC50 in the experiment on A549 was 6.78 µM; with Saccharomyces cerevisiae, over 200 mg/L; with HCT-15 it was 7.03 µM; in the experiment with SK-OV-3, 9.52 µM; with SK-MEL-2, 4.5 µM; in the experiment with Bacillus subtilis it was 106 mg/L (≈ 169 µM). For the same molecule, the IC50 with Candida albicans was over 200 mg/L; with Staphylococcus aureus it was 165 mg/L (≈ 264 µM). Also, the MIC stood at 150 mg/L (≈ 240 µM) in the experiment on Bacillus subtilis and 200 mg/L (≈ 320 µM) against Staphylococcus aureus.

Consider `CC[C@@H](C)C(=O)c1c(O)cc(O)cc1CC(=O)O`, for which the half-inhibitory concentration (IC50) is over 30 µM in the experiment on A549; over 200 mg/L in the experiment on Saccharomyces cerevisiae; over 30 µM in the experiment on HCT-15; over 30 µM in the experiment with SK-OV-3; over 30 µM in the experiment with SK-MEL-2; 84.1 mg/L (≈ 333 µM) with Bacillus subtilis. Besides, the IC50 is over 200 mg/L with Candida albicans and 140 mg/L (≈ 556 µM) in the experiment on Staphylococcus aureus. Further, the MIC against Bacillus subtilis stood at 150 mg/L (≈ 595 µM); in the experiment on Staphylococcus aureus it was 200 mg/L (≈ 793 µM).

In the case of `C[C@@H]1O[C@@H](O[C@@H]2[C@@H](O)[C@H](OCCc3ccc(O)c(O)c3)O[C@H](CO)[C@H]2OC(=O)/C=C/c2ccc(O)c(O)c2)[C@H](O)[C@H](O)[C@H]1O` [ACETOSIDE], the IC50 in the experiment with A549 is 5.81 µM; in the experiment with Saccharomyces cerevisiae, over 200 mg/L; in the experiment on HCT-15, 2.73 µM; in the experiment with SK-OV-3, 7.61 µM; in the experiment on SK-MEL-2, 8.52 µM; in the experiment on Bacillus subtilis, 98.5 mg/L (≈ 158 µM). Further, the IC50 with Candida albicans was over 200 mg/L; with Staphylococcus aureus, 156 mg/L (≈ 249 µM). Moreover, the MIC is 150 mg/L (≈ 240 µM) in the experiment with Bacillus subtilis and 200 mg/L (≈ 320 µM) with Staphylococcus aureus.

In the experiment with Saccharomyces cerevisiae, `C[C@@H]1[C@H](O)[C@@H](C)/C=C/C=C/C=C/C=C/C=C/C=C/C=C/[C@H](O[C@@H]2O[C@H](C)[C@@H](O)[C@H](N)[C@@H]2O)C[C@@H]2O[C@](O)(C[C@@H](O)C[C@@H](O)[C@H](O)CC[C@@H](O)C[C@@H](O)CC(=O)O[C@H]1C)C[C@H](O)[C@H]2C(=O)O` [AMPHOTERICIN B] came in with an IC50 of 0.5 mg/L (≈ 0.541 µM) and an MFC of 5 mg/L (≈ 5.41 µM). Also, in the experiment on Candida albicans, the concentration for half-maximal inhibition (IC50) turned out to be 2.1 mg/L (≈ 2.27 µM) and the MFC came to 5 mg/L (≈ 5.41 µM).

As to `COc1cccc2c1C(=O)c1c(O)c3c(c(O)c1C2=O)C[C@@](O)(C(=O)CO)C[C@@H]3O[C@H]1C[C@H](N)[C@H](O)[C@H](C)O1` [DOXORUBICIN], the IC50 in the experiment with HCT-15 worked out at 0.109 µM.

With `CN[C@@H]1[C@H](O[C@H]2[C@H](O[C@H]3[C@H](O)[C@@H](O)[C@H](N=C(N)N)[C@@H](O)[C@@H]3N=C(N)N)O[C@@H](C)[C@]2(O)C=O)O[C@@H](CO)[C@H](O)[C@H]1O.CN[C@@H]1[C@H](O[C@H]2[C@H](O[C@H]3[C@H](O)[C@@H](O)[C@H](N=C(N)N)[C@@H](O)[C@@H]3N=C(N)N)O[C@@H](C)[C@]2(O)C=O)O[C@@H](CO)[C@H](O)[C@H]1O.O=S(=O)(O)O.O=S(=O)(O)O.O=S(=O)(O)O` [STREPTOMYCIN SULFATE], in the experiment on Bacillus subtilis, half-maximal inhibition (IC50) was put at 4.5 mg/L and the MIC was determined as 5 mg/L. Moreover, in the experiment with Staphylococcus aureus, half-maximal inhibition (IC50) required 8.5 mg/L and the MIC was 10 mg/L.
